Measurements from article PMC8213057, “Targeting ALK2: An Open Science Approach to Developing Therapeutics for the Treatment of Diffuse Intrinsic Pontine Glioma” (Journal of Medicinal Chemistry, 2020).
Where “and” joins values, the source holds several entries; their conditions need not be identical. Identical values can stand only once.

Columns and labels:
IRR/INSRR = IRR/INSRR (Homo sapiens, UniProt P14616); assay: biochemical; settings: read-out: % enzyme activity, 1 μM; Run 1, Run 2
MAPKAPK2 = MAPKAPK2 (Homo sapiens, UniProt P49137); settings: 1 μM; Run 1, Run 2
CDK2/cyclin E2 = CDK2/cyclin E2 (Homo sapiens, UniProt P24941); settings: 1 μM; Run 1, Run 2
CAMK1b = CAMK1b (Homo sapiens, UniProt Q6P2M8); settings: 1 μM; Run 1, Run 2
CAMKK2 = CAMKK2 (Homo sapiens, UniProt Q96RR4); settings: 1 μM; Run 1, Run 2
CDK16/cyclin Y (PCTAIRE) = CDK16/cyclin Y (PCTAIRE) (Homo sapiens, UniProt Q00536); assay: biochemical; settings: read-out: % enzyme activity, 1 μM; Run 1, Run 2
KSR2 = biological target: T1, KSR2 (Homo sapiens, UniProt Q6VAB6); assay: biochemical; settings: read-out: % enzyme activity, 1 μM; Run 1, Run 2
T1 sequence (Q6VAB6 1-950): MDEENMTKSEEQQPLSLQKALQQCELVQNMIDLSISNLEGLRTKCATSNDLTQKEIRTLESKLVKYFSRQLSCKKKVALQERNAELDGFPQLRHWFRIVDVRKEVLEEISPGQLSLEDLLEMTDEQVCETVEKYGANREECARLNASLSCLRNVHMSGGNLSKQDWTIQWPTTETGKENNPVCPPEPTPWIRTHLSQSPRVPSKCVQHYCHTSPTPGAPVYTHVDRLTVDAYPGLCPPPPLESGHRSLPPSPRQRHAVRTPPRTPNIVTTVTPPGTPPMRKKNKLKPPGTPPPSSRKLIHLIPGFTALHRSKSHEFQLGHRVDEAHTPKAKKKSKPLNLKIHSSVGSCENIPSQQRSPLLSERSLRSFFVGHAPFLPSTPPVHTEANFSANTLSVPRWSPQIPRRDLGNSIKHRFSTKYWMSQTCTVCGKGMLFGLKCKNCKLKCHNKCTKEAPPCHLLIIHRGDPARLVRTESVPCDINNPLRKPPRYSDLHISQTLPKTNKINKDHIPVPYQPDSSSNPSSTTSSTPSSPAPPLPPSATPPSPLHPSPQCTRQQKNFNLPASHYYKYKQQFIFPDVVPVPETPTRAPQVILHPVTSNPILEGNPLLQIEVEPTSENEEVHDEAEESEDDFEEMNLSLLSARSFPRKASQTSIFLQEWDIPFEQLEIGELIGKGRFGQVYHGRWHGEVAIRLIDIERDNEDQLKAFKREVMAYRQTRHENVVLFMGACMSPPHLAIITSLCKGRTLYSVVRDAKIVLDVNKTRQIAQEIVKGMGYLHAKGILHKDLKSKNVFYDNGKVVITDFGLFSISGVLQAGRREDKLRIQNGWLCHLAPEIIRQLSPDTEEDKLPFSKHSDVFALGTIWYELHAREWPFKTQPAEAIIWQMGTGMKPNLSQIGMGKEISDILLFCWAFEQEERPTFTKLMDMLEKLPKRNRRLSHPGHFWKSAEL

MSK1/RPS6KA5 = MSK1/RPS6KA5 (Homo sapiens, UniProt O75582); settings: 1 μM; Run 1, Run 2
WNK3 = WNK3 (Homo sapiens, UniProt Q9BYP7); settings: 1 μM; Run 1, Run 2
DDR2 = biological target: T2, DDR2 (Homo sapiens, UniProt Q16832); assay: biochemical; settings: read-out: % enzyme activity, 1 μM; Run 1, Run 2
T2 sequence (Q16832 22-855): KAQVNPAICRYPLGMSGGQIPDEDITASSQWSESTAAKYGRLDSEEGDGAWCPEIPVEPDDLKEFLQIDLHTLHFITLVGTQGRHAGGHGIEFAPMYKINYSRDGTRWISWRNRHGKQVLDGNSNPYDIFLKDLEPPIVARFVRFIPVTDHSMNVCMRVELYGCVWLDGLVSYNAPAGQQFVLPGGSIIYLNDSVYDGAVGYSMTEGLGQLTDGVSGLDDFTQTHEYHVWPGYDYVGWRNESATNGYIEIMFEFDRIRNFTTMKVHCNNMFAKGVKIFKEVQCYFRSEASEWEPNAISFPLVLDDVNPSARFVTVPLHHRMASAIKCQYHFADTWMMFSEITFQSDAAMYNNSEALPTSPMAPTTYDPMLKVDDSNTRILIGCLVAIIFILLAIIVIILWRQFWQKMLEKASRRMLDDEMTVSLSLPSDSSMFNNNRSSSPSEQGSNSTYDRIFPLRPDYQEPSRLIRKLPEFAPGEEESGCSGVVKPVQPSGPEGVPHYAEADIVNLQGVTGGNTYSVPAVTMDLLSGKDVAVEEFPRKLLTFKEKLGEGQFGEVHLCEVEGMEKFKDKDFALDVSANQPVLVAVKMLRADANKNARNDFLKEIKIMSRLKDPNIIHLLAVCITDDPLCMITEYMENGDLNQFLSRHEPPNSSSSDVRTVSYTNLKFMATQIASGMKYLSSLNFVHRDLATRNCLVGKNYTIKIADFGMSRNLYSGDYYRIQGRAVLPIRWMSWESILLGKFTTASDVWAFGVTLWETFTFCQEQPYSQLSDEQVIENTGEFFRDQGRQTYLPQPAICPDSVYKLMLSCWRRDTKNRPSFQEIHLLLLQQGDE

GRK1 = biological target: T3, GRK1 (Homo sapiens, UniProt Q15835); settings: 1 μM; Run 1, Run 2
T3 sequence (Q15835 1-563): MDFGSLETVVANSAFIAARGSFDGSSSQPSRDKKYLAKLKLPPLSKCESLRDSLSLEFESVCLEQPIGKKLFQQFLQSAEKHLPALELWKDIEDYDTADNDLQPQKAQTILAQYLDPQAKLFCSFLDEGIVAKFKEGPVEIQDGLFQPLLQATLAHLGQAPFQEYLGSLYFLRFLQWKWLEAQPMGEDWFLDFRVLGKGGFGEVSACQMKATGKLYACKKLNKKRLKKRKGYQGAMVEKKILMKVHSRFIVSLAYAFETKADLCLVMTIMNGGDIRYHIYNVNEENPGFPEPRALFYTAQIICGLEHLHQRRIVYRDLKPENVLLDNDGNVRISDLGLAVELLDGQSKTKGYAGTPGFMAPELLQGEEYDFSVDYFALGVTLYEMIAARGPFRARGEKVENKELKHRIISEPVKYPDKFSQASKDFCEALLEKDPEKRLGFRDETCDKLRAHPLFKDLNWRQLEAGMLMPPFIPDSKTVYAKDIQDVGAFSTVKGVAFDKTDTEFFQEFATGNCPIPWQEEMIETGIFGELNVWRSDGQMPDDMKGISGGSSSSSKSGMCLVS

Sequence of CAMKK2 (Q96RR4 whole entry): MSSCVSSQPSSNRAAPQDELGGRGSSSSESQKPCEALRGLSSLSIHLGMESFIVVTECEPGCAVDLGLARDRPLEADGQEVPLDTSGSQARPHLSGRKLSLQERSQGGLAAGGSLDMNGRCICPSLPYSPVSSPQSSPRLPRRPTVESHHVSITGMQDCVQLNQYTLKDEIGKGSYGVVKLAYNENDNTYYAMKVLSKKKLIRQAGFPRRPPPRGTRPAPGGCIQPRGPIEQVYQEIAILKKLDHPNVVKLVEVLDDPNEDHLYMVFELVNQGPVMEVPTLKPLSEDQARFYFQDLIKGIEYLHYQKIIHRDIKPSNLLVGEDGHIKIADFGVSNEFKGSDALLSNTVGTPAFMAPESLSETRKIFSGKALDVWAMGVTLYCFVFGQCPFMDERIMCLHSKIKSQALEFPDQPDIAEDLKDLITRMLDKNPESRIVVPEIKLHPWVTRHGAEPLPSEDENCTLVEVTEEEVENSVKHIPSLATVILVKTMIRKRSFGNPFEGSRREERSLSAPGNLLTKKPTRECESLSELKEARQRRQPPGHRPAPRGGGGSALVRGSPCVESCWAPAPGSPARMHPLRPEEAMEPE
Sequence of CDK16/cyclin Y (PCTAIRE) (Q00536 whole entry): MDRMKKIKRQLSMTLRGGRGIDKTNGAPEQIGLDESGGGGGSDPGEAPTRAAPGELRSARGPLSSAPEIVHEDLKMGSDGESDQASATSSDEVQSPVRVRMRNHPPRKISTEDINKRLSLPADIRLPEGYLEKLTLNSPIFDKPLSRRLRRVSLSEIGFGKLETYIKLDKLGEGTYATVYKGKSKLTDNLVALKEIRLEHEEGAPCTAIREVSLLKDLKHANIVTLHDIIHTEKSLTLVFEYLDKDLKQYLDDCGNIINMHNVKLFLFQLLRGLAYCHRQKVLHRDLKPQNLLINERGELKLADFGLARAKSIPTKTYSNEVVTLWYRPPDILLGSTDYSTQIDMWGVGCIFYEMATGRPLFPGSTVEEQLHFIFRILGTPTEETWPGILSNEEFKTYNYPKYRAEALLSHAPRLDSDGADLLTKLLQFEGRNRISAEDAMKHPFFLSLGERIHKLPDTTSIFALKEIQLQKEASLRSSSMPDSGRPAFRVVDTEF
Sequence of CDK16/cyclin Y (PCTAIRE) (Q8ND76 whole entry partner): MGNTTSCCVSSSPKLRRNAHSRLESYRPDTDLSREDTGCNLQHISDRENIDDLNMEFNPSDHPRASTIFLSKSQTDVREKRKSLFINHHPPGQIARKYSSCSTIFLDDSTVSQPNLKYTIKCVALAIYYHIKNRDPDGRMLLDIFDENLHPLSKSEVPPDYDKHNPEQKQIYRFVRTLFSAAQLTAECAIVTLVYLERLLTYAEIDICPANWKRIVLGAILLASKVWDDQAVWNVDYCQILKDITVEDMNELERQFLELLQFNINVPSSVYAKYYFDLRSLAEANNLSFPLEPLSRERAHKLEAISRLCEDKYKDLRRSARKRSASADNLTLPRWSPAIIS
Sequence of IRR/INSRR (P14616 27-1297): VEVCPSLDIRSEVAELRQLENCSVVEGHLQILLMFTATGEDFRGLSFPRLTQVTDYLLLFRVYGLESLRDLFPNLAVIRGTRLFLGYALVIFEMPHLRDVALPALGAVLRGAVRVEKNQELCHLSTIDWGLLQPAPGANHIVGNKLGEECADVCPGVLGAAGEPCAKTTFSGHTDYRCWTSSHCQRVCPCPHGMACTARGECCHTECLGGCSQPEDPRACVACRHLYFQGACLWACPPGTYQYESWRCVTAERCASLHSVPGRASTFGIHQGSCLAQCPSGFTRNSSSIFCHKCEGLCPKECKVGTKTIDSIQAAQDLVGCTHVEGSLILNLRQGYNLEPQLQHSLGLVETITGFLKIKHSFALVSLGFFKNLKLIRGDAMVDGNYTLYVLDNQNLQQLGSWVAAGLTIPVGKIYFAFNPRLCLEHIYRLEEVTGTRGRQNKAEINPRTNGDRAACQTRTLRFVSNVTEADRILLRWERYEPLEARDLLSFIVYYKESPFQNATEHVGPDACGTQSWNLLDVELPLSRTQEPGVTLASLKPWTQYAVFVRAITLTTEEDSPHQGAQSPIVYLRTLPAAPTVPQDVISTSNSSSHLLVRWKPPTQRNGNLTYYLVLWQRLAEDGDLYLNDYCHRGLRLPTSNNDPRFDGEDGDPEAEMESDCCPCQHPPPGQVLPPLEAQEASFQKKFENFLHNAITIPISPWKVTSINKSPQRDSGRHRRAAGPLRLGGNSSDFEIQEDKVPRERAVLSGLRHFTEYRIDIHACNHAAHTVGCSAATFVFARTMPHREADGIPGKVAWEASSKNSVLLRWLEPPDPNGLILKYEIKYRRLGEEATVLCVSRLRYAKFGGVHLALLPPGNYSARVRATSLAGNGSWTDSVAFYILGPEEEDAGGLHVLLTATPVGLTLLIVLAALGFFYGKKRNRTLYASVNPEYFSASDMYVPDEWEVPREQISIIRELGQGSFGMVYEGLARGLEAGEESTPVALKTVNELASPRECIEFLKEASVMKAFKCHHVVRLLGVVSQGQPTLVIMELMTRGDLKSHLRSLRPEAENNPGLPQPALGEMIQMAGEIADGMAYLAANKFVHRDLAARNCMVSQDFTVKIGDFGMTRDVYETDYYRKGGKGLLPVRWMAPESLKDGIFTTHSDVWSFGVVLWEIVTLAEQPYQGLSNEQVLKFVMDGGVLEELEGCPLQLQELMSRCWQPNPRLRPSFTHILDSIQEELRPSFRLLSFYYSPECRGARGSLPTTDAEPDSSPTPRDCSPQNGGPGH
Sequence of MAPKAPK2 (P49137 whole entry): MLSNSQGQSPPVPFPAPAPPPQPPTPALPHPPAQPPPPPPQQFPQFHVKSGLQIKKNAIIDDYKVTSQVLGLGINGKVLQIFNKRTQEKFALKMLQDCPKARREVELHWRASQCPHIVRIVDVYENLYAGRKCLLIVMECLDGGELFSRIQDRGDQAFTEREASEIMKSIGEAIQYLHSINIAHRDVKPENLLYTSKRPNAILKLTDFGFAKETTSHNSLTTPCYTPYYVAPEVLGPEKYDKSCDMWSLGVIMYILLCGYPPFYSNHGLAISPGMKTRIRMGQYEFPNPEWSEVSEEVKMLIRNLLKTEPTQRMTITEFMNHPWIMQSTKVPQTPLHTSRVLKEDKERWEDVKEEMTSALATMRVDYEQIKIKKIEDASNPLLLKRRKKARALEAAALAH
Sequence of CAMK1b (Q6P2M8 whole entry): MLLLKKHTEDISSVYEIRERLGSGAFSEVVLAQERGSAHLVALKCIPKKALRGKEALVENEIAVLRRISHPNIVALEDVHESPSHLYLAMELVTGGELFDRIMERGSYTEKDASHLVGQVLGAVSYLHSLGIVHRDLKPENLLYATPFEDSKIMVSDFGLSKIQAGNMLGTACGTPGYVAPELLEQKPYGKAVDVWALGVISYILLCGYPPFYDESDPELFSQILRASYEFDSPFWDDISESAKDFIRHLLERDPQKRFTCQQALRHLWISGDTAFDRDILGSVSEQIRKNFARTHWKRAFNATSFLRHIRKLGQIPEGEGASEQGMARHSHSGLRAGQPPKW
Sequence of MSK1/RPS6KA5 (O75582 whole entry): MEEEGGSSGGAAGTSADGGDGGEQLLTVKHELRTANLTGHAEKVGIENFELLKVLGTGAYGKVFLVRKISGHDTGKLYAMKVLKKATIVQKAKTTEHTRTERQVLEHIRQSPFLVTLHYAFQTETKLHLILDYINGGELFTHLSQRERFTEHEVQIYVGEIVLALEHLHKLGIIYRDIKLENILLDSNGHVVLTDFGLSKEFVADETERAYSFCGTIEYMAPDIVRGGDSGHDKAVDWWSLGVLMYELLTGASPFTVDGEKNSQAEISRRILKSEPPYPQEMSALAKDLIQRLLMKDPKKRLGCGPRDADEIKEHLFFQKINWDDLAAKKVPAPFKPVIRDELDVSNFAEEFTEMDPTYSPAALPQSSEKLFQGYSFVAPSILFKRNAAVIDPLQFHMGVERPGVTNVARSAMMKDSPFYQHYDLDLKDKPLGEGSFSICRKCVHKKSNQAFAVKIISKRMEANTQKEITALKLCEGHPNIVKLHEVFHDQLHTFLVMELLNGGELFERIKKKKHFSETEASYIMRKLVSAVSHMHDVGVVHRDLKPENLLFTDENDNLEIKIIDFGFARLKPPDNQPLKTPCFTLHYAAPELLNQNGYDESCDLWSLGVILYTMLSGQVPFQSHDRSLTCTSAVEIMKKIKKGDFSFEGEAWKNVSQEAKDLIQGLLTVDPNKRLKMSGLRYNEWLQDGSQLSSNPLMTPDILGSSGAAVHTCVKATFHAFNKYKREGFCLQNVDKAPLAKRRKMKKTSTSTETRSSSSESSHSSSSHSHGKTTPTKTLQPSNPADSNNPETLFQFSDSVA

Structure (SMILES) | remaining activity at 1 µM (IRR/INSRR) [%] | % enzyme activity (MAPKAPK2) [%] | % enzyme activity at 1 μM (ALK6/BMPR1B) | % enzyme activity (CDK2/cyclin E2) [%] | % enzyme activity (CAMK1b) [%] | % enzyme activity (CAMKK2) [%] | remaining activity at 1 µM (CDK16/cyclin Y (PCTAIRE)) [%] | % enzyme activity at 1 μM (TNIK) | remaining activity at 1 µM (KSR2) [%] | % enzyme activity (MSK1/RPS6KA5) [%] | % enzyme activity (WNK3) [%] | remaining activity at 1 µM (DDR2) [%] | % enzyme activity (GRK1) [%]
COc1cc(-c2cncc(-c3ccc(N4CCN(C)CC4)cc3)c2C)cc(F)c1C(N)=O [Compound 26a, 2-Fluoro-6-methoxy-4-(4-methyl-5-(4-(4-methylpiperazin-1-yl)phenyl)pyridin-3-yl)benzamide] | 108 | 101.22 | 18.2% and 17% | 104.96 | 95.63 | 70.52 | 92.8 | -0.77% and -2.62% | 96.9 | 82.15 | 88.15 | 100 | 93.15
COc1cc(-c2cncc(-c3ccc(N4C[C@@H](C)N(C)[C@@H](C)C4)cc3)c2C)cc(F)c1C(N)=O [Compound 26c, 2-Fluoro-6-methoxy-4-(4-methyl-5-(4-((3R,5S)-3,4,5-trimethylpiperazin-1-yl)phenyl)pyridin-3-yl)benzamide] | 121 | 93.08 | 30.2% and 30.1% | 93.14 | 99.02 | 75.78 | 91.6 | 4.85% and 3.92% | 98.5 | 89.44 | 92.59 | 92.7 | 94.01
